Here are results for nine compounds from paper PMC8879107, “A3 Adenosine Receptor Antagonists with Nucleoside Structures and Their Anticancer Activity” (Pharmaceuticals, 2022).

The test system of series [1] is human prostate (PC3), colon (Caco-2) and hepatocyte (Hep G2) carcinomas. Set-up: method as in PMID 29763615. Conditions: all three tumor cell lines PC3, Caco-2, Hep G2; cited from earlier work.
The test system of series [2] is hepatocellular carcinoma and moderate hepatic dysfunction. Set-up: method as in PMID 33430312. The following applies: cited from earlier work.
Series [3] concerns PC3 prostate cancer cell line. Description: Sulforhodamine B (SRB) cell growth inhibition assay. Conditions: for GI50 / IC100 / CC50: Homo sapiens, 48 h; for IC100: read-out: TGI (μM); for TGI: PC3, 48 h, concentration to inhibit 100% of cell growth, mean ± SD; for CC50: read-out: LC50 (μM).
For series [4], the target named is T1, human recombinant A1AR (Homo sapiens, UniProt P30542).
T1 sequence (P30542 1-326): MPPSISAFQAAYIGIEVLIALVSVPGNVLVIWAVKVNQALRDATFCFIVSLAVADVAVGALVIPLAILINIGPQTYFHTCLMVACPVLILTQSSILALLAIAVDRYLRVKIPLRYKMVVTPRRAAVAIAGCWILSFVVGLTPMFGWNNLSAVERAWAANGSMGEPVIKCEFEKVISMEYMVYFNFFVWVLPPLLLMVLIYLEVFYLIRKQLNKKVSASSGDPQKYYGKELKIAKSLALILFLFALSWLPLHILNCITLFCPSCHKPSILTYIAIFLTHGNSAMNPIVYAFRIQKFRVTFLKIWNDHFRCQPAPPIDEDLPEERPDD
Description: Radioligand binding assay, displacement of [3H]CCPA in CHO cell membranes. The following applies: mean ± S.E., n = 3-5, read-out: hA1R (Ki nM). On the procedure: (§1) [^3H]CCPA (2-chloro-N^6-cyclopentylAdo), [^3H]NECA (5′-N-ethylcarboxamidoAdo), and [^3H]HEMADO (2-hexynyl-N^6-methylAdo) were used as respective radioligands. The results are reported as Ki values in nM (± standard errors) (Table 1). In the case of A2BAR, the potency of selected compounds was determined through a functional GloSensor cAMP assay.
(§2) All pharmacological methods followed the procedures as described earlier. In brief, membranes for radioligand binding were prepared from CHO cells stably transfected with human adenosine receptor subtypes through two centrifugations at different speeds. The first low-speed (1000 g) centrifugation allowed the removing of cell fragments and nuclei, while the second, performed at high speed (100,000 g), allowed the precipitation of the crude membrane fractions.
(§3) The binding affinity of the novel compounds was evaluated using radioligand competition experiments in CHO cells stably expressing hA1AR, hA2AAR, and hA3AR subtypes. […] Results were expressed as Ki values (dissociation constants), which were calculated with the program GraphPad (GraphPAD Software, San Diego, CA, USA). Each concentration was tested three–five times in duplicate and the values are given as the mean ± standard error (S.E.).

Series [5] deals with human recombinant A2AAR (Homo sapiens, UniProt P29274). The experiment in a line: Radioligand binding assay, displacement of [3H]NECA in CHO cell membranes. Conditions: mean ± S.E., n = 3-5, read-out: hA2AR (Ki nM). The method, then:
as §1, §2, §3
For orientation: Loss of bound radioactivity is the signal in a displacement assay; it reports binding, not function.

Series [6] concerns the target T2, human A3AR (Homo sapiens, UniProt P0DMS8).
T2 sequence (P0DMS8 1-318): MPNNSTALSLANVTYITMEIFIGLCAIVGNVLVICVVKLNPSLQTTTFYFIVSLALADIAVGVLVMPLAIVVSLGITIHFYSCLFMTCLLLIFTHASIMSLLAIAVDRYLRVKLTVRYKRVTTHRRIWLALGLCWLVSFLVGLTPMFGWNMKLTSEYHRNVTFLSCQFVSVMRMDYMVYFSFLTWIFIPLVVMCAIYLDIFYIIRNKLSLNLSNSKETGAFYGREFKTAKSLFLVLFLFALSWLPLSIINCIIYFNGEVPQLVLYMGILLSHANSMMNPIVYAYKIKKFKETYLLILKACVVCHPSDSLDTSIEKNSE
Description: Radioligand binding assay, displacement of [3H]HEMADO in CHO cell membranes. Conditions: for A1/A3: A3AR selectivity vs A1AR; for A1/A3 / A2A/A3: ratio of Ki values; for A2A/A3: A3AR selectivity vs A2AAR; for Ki: [3H]HEMADO, CHO membranes, mean ± S.E., n = 3-5, read-out: hA3R (Ki nM). On the procedure: In the case of A2BAR, the potency of selected compounds was determined through a functional GloSensor cAMP assay.
as §2, §3

Series [7] deals with T2, human A3AR. Description: GloSensor cAMP accumulation assay (agonism/antagonism) at A3AR in CHO cells. Conditions: for IC50: antagonism: counteracting agonist (NECA 1 μM) induced decrease of cAMP, forskolin 10 μM, mean ± S.E.; for functional behaviour at A3AR (agonist/antagonist): forskolin 10 µM stimulated cAMP, compared to Cl-IB-MECA. It is filed as cell-based. Also noted: expressed in transfected cells; host or cells: CHO cells stably expressing A3AR and the GloSensor biosensor plasmid. On the procedure:
CHO cells stable expressing A2B or A3ARs and the plasmid encoding the biosensor were used to study functional agonism and antagonism of understudy ligands. The desired cell number was incubated in equilibration medium containing a 3% v/v GloSensor cAMP reagent stock solution, 10% FBS and 87% of CO2 independent media. After 2 h of incubation, cells were dispensed in wells of 384 well plate and when a steady-state basal signal was obtained the agonism profile was studied, adding to wells the reference agonist NECA or compounds at different concentrations. In the case of the Gi coupled receptor A3AR Forskolin (FSK) 10 μM was added 10 min after the agonists and various luminescence readings were performed at different incubation times.
The antagonist profile of the compounds was evaluated by assessing their ability to counteract an agonist-induced increase or decrease (A2B and A3ARs, respectively) of cAMP accumulation. The cells were incubated with different antagonist concentrations and then treated with a fixed dose of NECA (10 μM for A2BAR and 1 μM for A3AR). FSK 10 μM was added 10 min after the agonists and various luminescence reads were performed at different incubation times.
Responses were expressed as percentage of the maximal relative luminescence units (RLU) and concentration–response curves were fitted by a nonlinear regression with the Prism program (GraphPAD Software, San Diego, CA, USA). The agonist or antagonist profile of compounds was expressed as EC50 or IC50, respectively. Each concentration was tested three–five times in duplicate and the values are given as the mean ± S.E.
(cAMP levels reflect the balance of adenylyl cyclase and phosphodiesterase activity.)

“Also recorded” adds a separate entry of the source.

human recombinant A2AAR, sequence (P29274 whole entry): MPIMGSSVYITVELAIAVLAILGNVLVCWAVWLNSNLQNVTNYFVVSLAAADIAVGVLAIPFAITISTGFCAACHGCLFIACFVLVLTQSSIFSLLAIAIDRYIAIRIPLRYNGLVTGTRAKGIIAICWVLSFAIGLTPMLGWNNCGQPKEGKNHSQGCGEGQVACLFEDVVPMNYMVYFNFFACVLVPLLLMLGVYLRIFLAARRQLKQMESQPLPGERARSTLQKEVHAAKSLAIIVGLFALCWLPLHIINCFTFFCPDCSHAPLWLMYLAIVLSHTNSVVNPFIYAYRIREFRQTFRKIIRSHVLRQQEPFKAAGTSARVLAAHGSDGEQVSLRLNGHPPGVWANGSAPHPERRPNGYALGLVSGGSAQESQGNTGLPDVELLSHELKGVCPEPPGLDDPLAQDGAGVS

As to `CNC(=O)[C@H]1O[C@@H](n2cnc3c(NCc4cccc(I)c4)nc(Cl)nc32)[C@H](O)[C@@H]1O` [Cl-IB-MECA, 2-chloro-N^6-(3-iodobenzyl)adenosine-5′-N-methyluronamide, reference compound], the “anticancer effect (cell growth inhibition)” value in series [1] is listed as “good anticancer effect”. In series [2], the “primary end-point of phase II trial” value is “did not meet its primary end-point” and the “safety profile in phase II trial” value was “favorable safety profile”. Also, in series [3], the GI50 turned out to be 18000 ± 400 nM, the IC100 is 44 µM and the “TGI” value was found to be 44000 ± 3300 nM.

Regarding `OC[C@H]1O[C@@H](n2cnc3c(NCCc4ccccc4)nc(I)nc32)[C@H](O)[C@@H]1O` [Compound 8, 2-Iodo-N^6-(2-phenylethyl)adenosine], in series [4], the Ki stood at 144 ± 32 nM. Moreover, in series [5], the Ki was 4120 ± 998 nM. Besides, in series [6], the A1/A3 is listed as 29 fold, the A2A/A3 came out at 824 fold and the inhibition constant Ki was 5 ± 1.2 nM. In series [3], halving of growth (GI50) required 42000 ± 2700 nM, the CC50 was 301 ± 13.4 µM, the IC100 is 113 µM and the “TGI” value amounted to 113000 ± 6700 nM.

Take `OC[C@H]1O[C@@H](n2cnc3c(NCC(c4ccccc4)c4ccccc4)nc(I)nc32)[C@H](O)[C@@H]1O` [Compound 9, 2-Iodo-N^6-(2,2-diphenylethyl)adenosine]: the inhibition constant (Ki) in series [4] was determined as 182 ± 25.4 nM. The Ki in series [5] was 1240 ± 253 nM. In addition, in series [6], the A1/A3 was determined as 17 fold, the A2A/A3 was 113 fold and the Ki is 11 ± 1.8 nM. In addition, in series [3], the 50% growth inhibitory concentration (GI50) was found to be 24000 ± 1200 nM, the CC50 amounted to 94 ± 3.5 µM, the IC100 turned out to be 48 µM and the “TGI” value was 48000 ± 3500 nM.

With `CCCCC#Cc1nc(NCCc2ccccc2)c2ncn([C@@H]3O[C@H](CO)[C@@H](O)[C@H]3O)c2n1` [Compound 10, 2-Hexynyl-N^6-(2-phenylethyl)adenosine], the inhibition constant Ki in series [4] came to 129 ± 8.2 nM. Besides, in series [5], the Ki stood at 146 ± 48 nM. In series [6], the A1/A3 amounted to 86 fold, the A2A/A3 amounted to 97 fold and the inhibition constant (Ki) worked out at 1.5 ± 0.3 nM. Also, in series [3], the 50% growth inhibitory concentration (GI50) stood at 13000 ± 1600 nM, the CC50 came to 452 ± 10.5 µM, the IC100 stood at 77 µM and the “TGI” value was determined as 77000 ± 2900 nM. In addition, in series [7], the IC50 stood at 31 ± 6 nM and the “functional behaviour at A3AR (agonist/antagonist)” value was “antagonists”.

For the compound `OC[C@H]1O[C@@H](n2cnc3c(NCCc4ccccc4)nc(C#Cc4ccccc4)nc32)[C@H](O)[C@@H]1O` [Compound 11, 2-Phenylethynyl-N^6-(2-phenethyl)adenosine], in series [4], the inhibition constant (Ki) was 809 ± 117 nM. For the same compound, the Ki in series [5] came to 2980 ± 271 nM. In series [6], the A1/A3 worked out at 213 fold, the A2A/A3 came to 785 fold and the Ki stood at 3.8 ± 0.6 nM. Also, in series [3], the GI50 is 2500 ± 800 nM, the CC50 came out at 151 ± 8.9 µM, the IC100 amounted to 19 µM and the “TGI” value stood at 19000 ± 6100 nM. Moreover, in series [7], the IC50 was found to be 79 ± 15 nM and the “functional behaviour at A3AR (agonist/antagonist)” value is “antagonists”.

Take `OC[C@H]1O[C@@H](n2cnc3c(NCC(c4ccccc4)c4ccccc4)nc(C#Cc4ccccc4)nc32)[C@H](O)[C@@H]1O` [Compound 12, N^6-(2,2-Diphenylethyl)-2-phenylethynyladenosine]: the Ki in series [4] was 211 ± 53 nM. Further, in series [5], the Ki came to 450 ± 84 nM. Besides, in series [6], the A1/A3 was found to be 2 fold, the A2A/A3 is 4 fold and the inhibitory constant (Ki) stood at 106 ± 25 nM. Moreover, in series [3], the GI50 is 14000 ± 900 nM, the CC50 amounted to 59 ± 10.1 µM, the IC100 was determined as 29 µM and the “TGI” value stood at 29000 ± 4900 nM. Moreover, in series [7], the concentration for half-maximal inhibition (IC50) was found to be 153 ± 12 nM and the “functional behaviour at A3AR (agonist/antagonist)” value is reported as “antagonists”.

For the compound `OC[C@H]1O[C@@H](n2cnc3c(NCCc4ccccc4)nc(SCCc4ccccc4)nc32)[C@H](O)[C@@H]1O` [Compound 13, N^6-(2-Phenylethyl)-2-phenylethylthioadenosine], the Ki in series [4] turned out to be 263 ± 19 nM. Moreover, the inhibition constant Ki in series [5] came out at 3360 ± 752 nM. In addition, in series [6], the A1/A3 stood at 9 fold, the A2A/A3 is listed as 112 fold and the inhibition constant (Ki) worked out at 30 ± 7.1 nM. For the same compound, in series [3], growth was halved (GI50) at 41000 ± 4200 nM, the CC50 was above 500 µM, the IC100 is above 500 µM and the “TGI” value was above 500000 nM.

For `OC[C@H]1O[C@@H](n2cnc3c(NCCc4ccccc4)nc(Cl)nc32)[C@H](O)[C@@H]1O` [Compound 15, 2-Chloro-N^6-(2-phenylethyl)adenosine], the inhibition constant Ki in series [4] is 1.64 ± 0.37 nM. Also, in series [5], the inhibition constant (Ki) was determined as 660 ± 129 nM. Moreover, in series [6], the A1/A3 came to 68 fold, the A2A/A3 is 27,500 fold and the inhibition constant Ki came out at 0.024 ± 0.005 nM. Also, in series [3], the GI50 came to 51000 ± 5200 nM, the CC50 was above 500 µM, the IC100 came out at 262 µM and the “TGI” value is 262000 ± 8300 nM. Further, in series [3] (PC3, at concentrations up to 500 µM), the cytotoxic activity entry is on record as “no cytotoxic activity”. Besides, in series [7], the EC50 is 14 ± 3.4 nM and the “functional behaviour at A3AR (agonist/antagonist)” value was “full A3AR agonist; also recorded: A3AR full agonists”.

In the case of `OC[C@H]1O[C@@H](n2cnc3c(NCC(c4ccccc4)c4ccccc4)nc(Cl)nc32)[C@H](O)[C@@H]1O` [Compound 16, 2-Chloro-N^6-(2,2-diphenylethyl)-adenosine], in series [4], the inhibition constant Ki stood at 0.76 ± 0.2 nM. The Ki in series [5] was 266 ± 35 nM. In addition, in series [6], the A1/A3 worked out at 6 fold, the A2A/A3 is recorded as 2046 fold and the inhibitory constant (Ki) was 0.13 ± 0.01 nM. Besides, in series [3], the GI50 came out at 35000 ± 3100 nM, the CC50 was 253 ± 11.5 µM, the IC100 is 94 µM and the “TGI” value is 94000 ± 4100 nM.

As usually defined, the GI50 is the concentration giving 50% growth inhibition. Low readings indicate more potent growth inhibition, high ones less potent growth inhibition. Usually TGI stands for the concentration giving total growth inhibition. The Ki is the equilibrium dissociation constant of an inhibitor or competing ligand from its target. Broadly, the IC50 is the concentration that gives 50% inhibition. A lower IC50 goes with greater potency. Broadly, the EC50 is the concentration at which the effect is half-maximal.
